Measured values: patent publication US7557123B2, “Heterocyclic compound and medicinal use thereof” (Kyoto Pharmaceutical Industries, Ltd., priority 2001, dated 2009)

Columns and labels:
[1] = Solubility of the compound in water (buffer pH 7.0); type: physicochemical
Procedure: The pulverized test compound (compounds of Examples 2, 20, 22, 24, 27, 30, 40 or 65, 25 mg) was added to a buffer (1.0 ml, pH 7.0) and the mixture was shaken at 25° C. for 1 hr and passed through a membrane filter. The concentration of the test compound in the filtrate was measured by high performance liquid chromatography.

male KK-A^y mice = test: Hypoglycemic and hypolipidemic activity in spontaneously diabetic KK-Ay mice; type: in vivo; settings: 10 mg/kg/day orally for 4 consecutive days, plasma 24 hours after final administration, non-fasting, vs control group
Procedure: Blood was drawn under a non-fasting state from the tail vein of male KK-A^y mice, and the glucose and triglyceride levels of the plasma were measured using commercially available assay kits (glucose CII-test WAKO and triglyceride G-test WAKO, Wako Pure Chemical Industries, Ltd.). The mice were grouped (5 mice per group) into a control group and an administration group, such that the mean and standard deviation of the body weight and the plasma glucose and plasma triglyceride levels in each group were nearly the same. The test compounds (compounds of Examples 1, 2, 4, 8, 20, 22, 24, 27, 30, 33, 36, 37, 40, 45, 47, 52, 56, 58 and 64) were suspended in 5% gum arabic solution and administered (10 mg/kg/day) orally to the administration group for 4 consecutive days. The 5% gumarabic solution was orally administered to the control group. Blood was drawn under a non-fasting state from the tail vein 24 hours after the final administration and the glucose and triglyceride levels of the plasma were measured. The decrease in the plasma glucose and triglyceride levels was calculated from the following formula. Decrease (%)=[(mean of control group−mean of test compound administration group)/mean of control group]×100 Results

[2] = 25 mg in 1.0 ml buffer pH 7.0, shaken at 25° C. for 1 hr, filtrate by HPLC

Compound: CC(C)(C)N.CC=CC=CC(=O)N1Cc2cc(OCCc3nc(/C=C/CCC(C)C)oc3C)ccc2C[C@H]1C(=O)O (stereo in doubt) [Example 30, tert-butylamine 2-(2,4-hexadienoyl)-7-{2-[5-methyl-2-(5-methyl-trans-1-hexen-1-yl)oxazol-4-yl]ethoxy}-1,2,3,4-tetrahydroisoquinoline-(3S)-carboxylate]
- Solubility [1, 2]: 17.3 mg/mL
- Decrease (%) in glucose level (male KK-A^y mice): 55.4%
- Decrease (%) in triglyceride level (male KK-A^y mice): 57.0%

Compound: Cc1oc(C=Cc2ccccc2)nc1CCOc1ccc2c(c1)CN(C(=O)C(F)(F)C(F)(F)F)[C@H](C(=O)O)C2 [Example 8, 7-[2-(5-methyl-2-styryloxazol-4-yl)ethoxy]-2-pentafluoropropionyl-1,2,3,4-tetrahydroisoquinoline-(3S)-carboxylic acid]
- Decrease (%) in glucose level (male KK-A^y mice): 57.2%
- Decrease (%) in triglyceride level (male KK-A^y mice): 71.1%

Compound: C=CCCCN1Cc2cc(OCCc3nc(/C=C/CC(C)C)oc3C)ccc2C[C@H]1C(=O)O (stereo in doubt) [Example 58, 7-{2-[5-methyl-2-(4-methyl-trans-1-penten-1-yl)oxazol-4-yl]ethoxy}-2-(4-pentenyl)-1,2,3,4-tetrahydroisoquinoline-(3S)-carboxylic acid]
- Decrease (%) in glucose level (male KK-A^y mice): 25.1%
- Decrease (%) in triglyceride level (male KK-A^y mice): 23.2%

Compound: CC(C)(C)N.CC=CC=CC(=O)N1Cc2cc(OCCc3nc(/C=C/CC(C)(C)C)oc3C)ccc2C[C@H]1C(=O)O (stereo in doubt) [Example 45, tert-butylamine 7-{2-[2-(4,4-dimethyl-trans-1-penten-1-yl)-5-methyloxazol-4-yl]ethoxy)-2-(2,4-hexadienoyl)-1,2,3,4-tetrahydroisoquinoline-(3S)-carboxylate]
- Decrease (%) in glucose level (male KK-A^y mice): 38.7%
- Decrease (%) in triglyceride level (male KK-A^y mice): 32.6%

Compound: CC(C)(C)N.CC=CC=CC(=O)N1Cc2cc(OCCc3nc(/C=C/C4(C)CCCCC4)oc3C)ccc2C[C@H]1C(=O)O (stereo in doubt) [Example 56]
- Decrease (%) in glucose level (male KK-A^y mice): 21.0%
- Decrease (%) in triglyceride level (male KK-A^y mice): 11.9%

Compound: CC(C)(C)N.CC=CC=CC(=O)N1Cc2cc(OCCc3nc(/C=C/C4CCCCC4)oc3C)ccc2C[C@H]1C(=O)O (stereo in doubt) [Example 40]
- Solubility [1, 2]: 18.7 mg/mL
- Decrease (%) in glucose level (male KK-A^y mice): 54.3%
- Decrease (%) in triglyceride level (male KK-A^y mice): 37.0%

Compound: CC(C)(C)N.CCC/C=C/c1nc(CCOc2ccc3c(c2)CN(C(=O)C(F)(F)CC)[C@H](C(=O)O)C3)c(C)o1 (stereo in doubt) [Example 52, tert-butylamine 2-(2,2-difluorobutyryl)-7-{2-[5-methyl-2-(trans-1-penten-1-yl)oxazol-4-yl]ethoxy}-1,2,3,4-tetrahydroisoquinoline-(3S)-carboxylate]
- Decrease (%) in glucose level (male KK-A^y mice): 26.6%
- Decrease (%) in triglyceride level (male KK-A^y mice): 19.1%

Compound: CC(C)(C)N.CC=CC=CC(=O)N1Cc2cc(OCCc3nc(/C(C)=C/CCC)oc3C)ccc2C[C@H]1C(=O)O (stereo in doubt) [Example 33, tert-butylamine 2-(2,4-hexadienoyl)-7-(2-[5-methyl-2-(1-methyl-trans-1-penten-1-yl)oxazol-4-yl]ethoxy}-1,2,3,4-tetrahydroisoquinoline-(3S)-carboxylate]
- Decrease (%) in glucose level (male KK-A^y mice): 58.2%
- Decrease (%) in triglyceride level (male KK-A^y mice): 68.3%

Compound: CCC/C=C/c1nc(CCOc2ccc3c(c2)CN(C(=O)C(F)(F)C(F)(F)F)[C@H](C(=O)O)C3)c(C)o1 (stereo in doubt) [Example 37]
- Decrease (%) in glucose level (male KK-A^y mice): 53.2%
- Decrease (%) in triglyceride level (male KK-A^y mice): 50.1%

Compound: CC(C)(C)N.CC=CC=CC(=O)N1Cc2cc(OCCc3nc(/C=C/COC)oc3C)ccc2C[C@H]1C(=O)O (stereo in doubt) [Example 65]
- Solubility [1, 2]: 20.5 mg/mL

Compound: CC(C)(C)N.CC=CC=CC(=O)N1Cc2cc(OCCc3nc(/C(C)=C/CC)oc3C)ccc2C[C@H]1C(=O)O (stereo in doubt) [Example 36, tert-butylamine 2-(2,4-hexadienoyl)-7-{2-[5-methyl-2-(1-methyl-trans-1-buten-1-yl)oxazol-4-yl]ethoxy}-1,2,3,4-tetrahydroisoquinoline-(3S)-carboxylate]
- Decrease (%) in glucose level (male KK-A^y mice): 39.8%
- Decrease (%) in triglyceride level (male KK-A^y mice): 27.5%

Compound: CC(C)(C)N.CCC/C=C/c1nc(CCOc2ccc3c(c2)CN(C(=O)C=CCC(C)C)[C@H](C(=O)O)C3)c(C)o1 (stereo in doubt) [Example 47, tert-butylamine 2-(5-methyl-2-hexenoyl)-7-(2-[5-methyl-2-(trans-1-penten-1-yl)oxazol-4-yl]ethoxy}-1,2,3,4-tetrahydroisoquinoline-(3S)-carboxylate]
- Decrease (%) in glucose level (male KK-A^y mice): 29.9%
- Decrease (%) in triglyceride level (male KK-A^y mice): 10.9%

Compound: CC(C)(C)N.CC=CC=CC(=O)N1Cc2cc(OCCc3nc(/C=C/C4CCCC4)oc3C)ccc2C[C@H]1C(=O)O (stereo in doubt) [Example 22, tert-butylamine 7-{2-[2-(trans-2-cyclopentylvinyl)-5-methyloxazol-4-yl]ethoxy}-2-(2,4-hexadienoyl)-1,2,3,4-tetrahydroisoquinoline-(3S)-carboxylate]
- Solubility (mg/ml) [1, 2]: 25 or above mg/ml
- Decrease (%) in glucose level (male KK-A^y mice): 45.3%
- Decrease (%) in triglyceride level (male KK-A^y mice): 51.4%

Compound: CC(C)(C)N.CC=CC=CC(=O)N1Cc2cc(OCCc3nc(/C=C/CCCC)oc3C)ccc2C[C@H]1C(=O)O (stereo in doubt) [Example 27, tert-butylamine 2-(2,4-hexadienoyl)-7-{2-[2-(trans-1-hexen-1-yl)-5-methyloxazol-4-yl]ethoxy}-1,2,3,4-tetrahydroisoquinoline-(3S)-carboxylate]
- Solubility (mg/ml) [1, 2]: 25 or above mg/ml
- Decrease (%) in glucose level (male KK-A^y mice): 53.4%
- Decrease (%) in triglyceride level (male KK-A^y mice): 36.5%

Compound: CCCC#CC(=O)N1Cc2cc(OCCc3nc(/C=C/CCC)oc3C)ccc2C[C@H]1C(=O)O (stereo in doubt) [Example 4, 2-(2-hexynoyl)-7-[2-(5-methyl-2-(trans-1-penten-1-yl)oxazol-4-yl)ethoxy]-1,2,3,4-tetrahydroisoquinoline-(3S)-carboxylic acid]
- Decrease (%) in glucose level (male KK-A^y mice): 40.3%
- Decrease (%) in triglyceride level (male KK-A^y mice): 40.5%

Compound: CC(C)(C)N.CCCCC=CC(=O)N1Cc2cc(OCCc3nc(/C=C/CC(C)C)oc3C)ccc2C[C@H]1C(=O)O (stereo in doubt) [Example 24, tert-butylamine-2-(2-heptenoyl)-7-{2-[5-methyl-2-(4-methyl-trans-1-penten-1-yl)oxazol-4-yl]ethoxy}-1,2,3,4-tetrahydroisoquinoline-(3S)-carboxylate]
- Solubility ([1]; pH 7): 18.7 mg/mL
- Decrease (%) in glucose level (male KK-A^y mice): 52.8%
- Decrease (%) in triglyceride level (male KK-A^y mice): 50.7%

Compound: C=CCCN1Cc2cc(OCCc3nc(/C=C/CC(C)C)oc3C)ccc2C[C@H]1C(=O)O (stereo in doubt) [Example 64, 2-(3-butenyl)-7-{2-[5-methyl-2-(4-methyl-trans-1-penten-1-yl)oxazol-4-yl]ethoxy}-1,2,3,4-tetrahydroisoquinoline-(3S)-carboxylic acid]
- Decrease (%) in glucose level (male KK-A^y mice): 29.4%
- Decrease (%) in triglyceride level (male KK-A^y mice): 25.1%
